Here are results for 19 compounds from patent publication US7179819B2, “VLA-4 inhibitor compounds” (Daiichi Pharmaceutical Co., Ltd., priority 1999, dated 2007).

Several values for one entry are separate records, joined by “and”; a condition that tells them apart may be missing. Equal values may be shown once. Where a name gives a salt, the structure may show the parent alone. Read-outs that look alike come from different tables or passages of the source.

Series [1] can be described thus: Mouse bio-assay: serum concentration after oral dosing, determined by direct binding assay of diluted serum. The following applies: female, Balb/c, serum, po.
Experimental: A compound was dissolved or suspended with an appropriate solvent at 1 mg/mL. Female Balb/c mice (7–9 weeks old) were given the compound orally. Blood samples were collected from the postcaval vein of the anesthetized mice after fifteen minutes. Serum was prepared and stored at −20° C. Serum concentration of the compound was determined from inhibitory activities of the diluted serum by a direct binding assay using VLA-4-expressing cells and VCAM-IgG fusion protein. Serum concentration determined by this method correlated well with the concentration determined by LC/MS/MS methodologies.
Series [2] deals with eosinophil infiltration. In words: Murine model of Ascaris-induced bronchial inflammation: eosinophil infiltration into bronchoalveolar lavage fluid. In kind it is in vivo. The settings on record: mouse. On the procedure: The VLA-4 inhibitors may be further characterized in in vivo assays. One such assay examines the inhibition of eosinophil infiltration into the bronchoalveolar lavage fluid in the mouse (murine) model. In this assay, the animals are treated with cyclophosphamide on day 0. On days 2 and 14, the animals are immunized intraperitoneally with Ascaris suum extract. Seven days later, the animals are treated with various doses of the VLA-4 inhibitor. Shortly after drug administration, the animals are challenged with Ascaris suum extract by instillation into the trachea. Bronchoalveolar lavage of the animal is performed by instilling saline into the lung, 48 hours later. Total cell and eosinophil counts in the lavage are determined.

A short description of series [3]: in vivo. The following applies: monkey, serum, intravenous, 2 mg/kg.
In series [4] the test system is eosinophil infiltration. In words: Eosinophil accumulation model in the rat (Compound 48/80 injected into pleural cavities). The format is in vivo, male Sprague Dawley rats. The settings on record: 50 mg/kg 2 days, s.c., b.i.d. at 0 and 8 hours. On the procedure:
The compounds of the present invention may also be further characterized in other in vivo assays, such as the eosioophil accumulation model tested in the rat. Fifty μg of Compound 48/80 was injected into the pleural cavities of male Sprague Dawley rats. After 24 hrs, each cavity was washed twice with Hank's Balanced Salt Solution containing 0.2% EDTA. Total cell and eosinophil counts were determined. Test compounds were given intraveneously, orally or subcutaneously, b.i.d. at 0 and 8 hours.

Series [5] in a line: Pharmacokinetic evaluation in rat. The format is in vivo. The following applies: for AUC (total area under the plasma concentration versus time curve): LC/MS/MS; for clearance / MRT: plasma, 10 mg/kg; for clearance: read-out: CL (apparent plasma clearance); for MRT: read-out: MRT (mean residence time).
The mark [6] stands for this setting: iv, 10 mg/kg (i.v.), line of AUC 0–6 hr.
Setting [7] is: iv, 10 mg/kg (i.v.), line of AUC 0–∞.

One may read the melting point as the temperature, or range, at which the solid turns liquid. In turn, `COc1cc(CC(=O)N2C[C@@H](Cl)C[C@H]2COc2ccc(C(=O)O)cc2)ccc1NC(=O)Nc1ccccc1Cl` [Compound 102, 4-[(4S)-chloro-1-[3-methoxy-4-[N′-(2-chlorophenyl)ureido]phenylacetyl]-(2S)-pyrrolidinyl]methoxybenzoic acid] had a melting point of 126 to 131 °C. Also, the concentration at 15 min in series [1] (10 mg/kg) turned out to be 503 ng/mL.
In series [1] (50 mg/kg), `COc1cc(CC(=O)N(CCOc2ccc(C(=O)OC(C)C)cc2)CCN2CCOCC2)ccc1NC(=O)Nc1ccccc1C` [Compound 318, isopropyl 4-[2-N-[2-(4-morpholinyl)ethyl]-N-[3-methoxy-4-[N′-(2-methylphenyl)ureido]phenyl]acetamido]ethoxybenzoate] yielded a concentration at 30 min of 2100 ng/mL.
For `Cc1ccccc1NC(=O)Nc1cc(F)c(CC(=O)N2C[C@@H](F)C[C@H]2COc2ccc(C(=O)O)cc2)cc1F` [Compound 98, 4-[1-[4-[N′-(2-methylphenyl)ureido]-2,5-difluorophenylacetyl]-(4S)-fluoro-(2S)-pyrrolidinylmethoxy]benzoic acid], the concentration at 15 min in series [1] (10 mg/kg) was found to be 2800 ng/mL.
`COc1cc(CC(=O)N2C3CCCCC3C[C@H]2COc2ccc(C(=O)O)cc2)ccc1NC(=O)Nc1ccccc1Cl` (stereo partly drawn) [Compound 166, 4-[1-[4-[N′-(2-chlorophenyl)ureido]-3-methoxyphenylacetyl]-(2S)-octahydroindolylmethoxy]benzoic acid] gave a melting point of 133 to 136 °C. The concentration at 15 min in series [1] (10 mg/kg) stood at 360 ng/mL.
For the compound “4-(N′-2-methylphenylurea)phenylacetyl-LDVP-OH [reference compound]”, in series [2] (oral dosage of 50 mg/kg), the “% Inhibition of Eosinophil Infiltration” value is given as −2%.
In series [3], `CC(C)NCC(O)COc1ccc(CC(N)=O)cc1` (centres unmarked) [ATENOLOL, reference compound] came in with a concentration at 5 min of 4060 ng/mL, a concentration at 30 min of 1190 ng/mL, a concentration at 1 hr of 771 ng/mL and a concentration at 2 hr of 479 ng/mL. Further, in series [3], the concentration at 4 hr turned out to be 348 ng/mL and the concentration at 8 hr stood at 137 ng/mL.
With `O=C(Nc1ccccc1Cl)Nc1ccc(CC(=O)N2C[C@@H](F)C[C@H]2COc2ccc(C(=O)O)cc2)cc1Br` [Compound 95, 4-[1-[3-bromo-4-[N′-(2-chlorophenyl)ureido]phenylacetyl]-(4S)-fluoro-(2S)-pyrrolindinyl]methoxybenzoic acid], the “% Inhibition of Eosinophil Infiltration” value in series [4] was found to be 40.9%.
The compound `COc1cc(CC(=O)N2C3CCCCC3C[C@H]2COC2CCC(C(=O)O)CC2)ccc1NC(=O)Nc1ccccc1Br` (stereo partly drawn) [Compound 179, cis-4-[-1-[4-[N′-(2-bromophenyl)ureido]-3-methoxylphenylacetyl]-(2S)-octahydroindolylmethoxy]cyclohexanecarboxylic acid] returned a melting point of 115 to 120 °C. In series [1] (10 mg/kg), this compound returned a concentration at 15 min of 428 ng/mL.
Take `C=CCN(CCOc1ccc(C(=O)O)cc1)C(=O)Cc1ccc(NC(=O)Nc2ccccc2Br)c(OC)c1` [Compound 311, 4-[2-N-allyl-N-[4-[N′(2-bromophenyl)ureido]-3-methoxyphenyl]acetamido]ethoxybenzoic acid]: the “% Inhibition of Eosinophil Infiltration” value in series [2] (50 mg/kg t.i.d. × 2 days, p.o.) is 42.5%; in series [2] (50 mg/kg t.i.d. × 2 days, s.c., 50 mg/kg) it was 80.2% and 49.3%.
Take `COc1cc(CC(=O)N(CCOc2ccc(C(=O)O)cc2)CCN2CCC(F)(F)C2)ccc1NC(=O)Nc1ccccc1Br` [Compound 319, 4-[2-N-[2-(3,3-difluoro-1-pyrrolidinyl)ethyl]-N-[4-[N′-(2-bromophenyl)ureido]-3-methoxyphenyl]acetamido]ethoxybenzoic acid sodium salt]: the concentration at 15 min in series [1] (50 mg/kg) stood at 603 ng/mL.
Usually MRT stands for a mean duration of stay, worked out from the concentration-time curve. For `Cc1cc(CC(=O)N2C[C@@H](F)C[C@H]2COc2ccc(C(=O)O)cc2)ccc1NC(=O)Nc1ccccc1Cl` [Compound 79, 4-[1-[4-[N′-(2-chlorophenyl)ureido]-3-methylphenylacetyl]-(4S)-fluoro-(2S)-pyrrolidinyl]methoxybenzoic acid], in series [2] (30 mg/kg b.i.d. × 2 days, i.v.), the “% Inhibition of Eosinophil Infiltration” value was found to be 35.9%. Further, the “AUC (total area under the plasma concentration versus time curve)” value in series [5] (10 mg/kg (i.v.), 0–6 hr) was 5259 (0–6 hr) ng · h/mL; in series [5] (10 mg/kg (i.v.), 0–∞) it was 5389 (0–∞) ng · h/mL; in series [5] (10 mg/kg (p.o.), 0–6 hr) it was 22119 (0–6 hr) ng · h/mL; in series [5] (10 mg/kg (p.o.), 0–∞) it was 24867 (0–∞) ng · h/mL. Also, the “CL (apparent plasma clearance)” value was found to be 8.5 mL/min/kg in series [5] (10 mg/kg (p.o.), line of AUC 0–6 hr) and 6.7 mL/min/kg in series [5] (10 mg/kg (p.o.), line of AUC 0–∞). For the same compound, the clearance was determined as 31.7 mL/min/kg in series [5] (setting [6]) and 30.9 mL/min/kg in series [5] (setting [7]). The mean residence time (MRT) in series [5] (setting [6]) is 24 min; in series [5] (setting [7]) it was 36 min; in series [5] (po, 10 mg/kg (p.o.), line of AUC 0–6 hr), 30 min; in series [5] (po, 10 mg/kg (p.o.), line of AUC 0–∞), 42 min. In series [1] (10 mg/kg), this compound came in with a concentration at 15 min of 618 ng/mL.
In the case of `O=C(Nc1ccc(CC(=O)N2C[C@@H](F)C[C@H]2COc2ccc(C(=O)O)cc2)cc1Cl)Nc1ccccc1Br` [Compound 92, 4-[1-[4-[N′-(2-bromophenyl)ureido]-3-chlorophenylacetyl]-(4S)-fluoro-(2S)-pyrrolidinyl]methoxybenzoic acid], the “% Inhibition of Eosinophil Infiltration” value in series [4] amounted to 43.1%. In addition, the concentration at 15 min in series [1] (10 mg/kg) amounted to 2160 ng/mL.
As for `COc1cc(CC(=O)N2C[C@@H](OC)C[C@H]2COc2ccc(C(=O)O)cc2)ccc1NC(=O)Nc1ccccc1Br` [Compound 134, 4-[(2S,4S)-1-[4-[N′-(2-bromophenyl)ureido]-3-methoxyphenylacetyl]-4-methoxy-2-pyrrolidinyl]methoxybenzoic acid], the concentration at 15 min in series [1] (10 mg/kg) stood at 224 ng/mL.
For the compound `COc1cc(C(=O)O)ccc1C#CC1CCCN1C(=O)Cc1ccc(NC(=O)Nc2ccccc2C)c(OC)c1` (centres unmarked) [Compound 36, 3-methoxy4-[2-[1-[3-methoxy4-[N′-(2-methylphenyl)ureido]phenylacetyl]-2-pyrrolidinyl]ethynyl]benzoic acid], the melting point was in the range of 141 to 145 °C. Also, in series [2] (oral dosage of 30 mg/kg), the “inhibition of eosinophil infiltration” value was determined as 49%.
`Cc1ccccc1NC(=O)Nc1ccc(CC(=O)N2C[C@@H](F)C[C@H]2COc2ccc(C(=O)O)cc2)cc1C` [Compound 78, 4-[(4S)-fluoro-1-[3-methyl-4-[N′-(2-methylphenyl)ureido]phenylacetyl]-(2S)-pyrrolidinyl]methoxybenzoic acid] registered a concentration at 15 min in series [1] (10 mg/kg) of 368 ng/mL.
On to `Cc1ccccc1NC(=O)Nc1ccc(CC(=O)N2C[C@@H](F)C[C@H]2COc2ccc(C(=O)O)cc2)c(F)c1F` [Compound 97, 4-[1-[4-[N′-(2-methylphenyl)ureido]-2,3 difluorophenylacetyl]-(4S)-fluoro-(2S)-pyrrolidinylmethoxy]benzoic acid], for which, in series [1] (10 mg/kg), the concentration at 15 min was found to be 1730 ng/mL.
Same read-out and setting: for `C#CCN(CCOc1ccc(C(=O)O)cc1)C(=O)Cc1ccc(NC(=O)Nc2ccccc2Cl)c(OC)c1` [Compound 309, 4-[2-N-[4-[N′-(2-chlorophenyl)ureido]-3-methoxyphenyl]-N-propargylacetamido]-ethoxybenzoic acid] the value was 669 ng/mL.
For `COC(=O)c1ccc(OCCN(CCN2CCOCC2)C(=O)Cc2ccc(NC(=O)Nc3ccccc3C)c(OC)c2)cc1` [Compound 314, methyl 4-[2-N-[2-(4-morpholinyl)ethyl]-N-[3-methoxy-4-[N′-(2-methylphenyl)ureido]phenyl]-acetamido]ethoxybenzoate], the “% Inhibition of Eosinophil Infiltration” value in series [2] (50 mg/kg t.i.d. × 2 days, p.o.) was 18.9%. The same compound showed a concentration at 30 min in series [1] (50 mg/kg) of 2310 ng/mL.
For `COc1cc(CC(=O)N2C[C@@H](Oc3ccc4ccccc4c3)C[C@H]2COc2ccc(C(=O)O)cc2)ccc1NC(=O)Nc1ccccc1Cl` [Compound 124, 4-[(2S,4S)-1-[4-[N′-(2-chlorophenyl)ureido]-3-methoxyphenylacetyl]-4-(2-naphtyloxy)-2-pyrrolidinyl]methoxybenzoic acid], the concentration at 15 min in series [1] (10 mg/kg) worked out at 841 ng/mL.
